# Measurements taken from patent US8889712B2, “IAP antagonists” (Bristol-Myers Squibb Company, priority 2012, dated 2014).
# Assays:
# XIAP BIR3 = target: T1, XIAP BIR3 (Homo sapiens, UniProt P98170); assay: XIAP-BIR3/SMAC Homogeneous Time Resolved Fluorescence (HTRF) Assay; format: binding; settings: 1 nM N-His-BIR3 (241-356, XIAP), 5 nM fluorescein labeled SMAC peptide; HTRF signal; read-out: XIAP BIR3 IC50
# T1 construct: His-BIR3 (241-356, XIAP)
# Procedure: A. XIAP-BIR3/SMAC Homogeneous Time Resolved Fluorescence (HTRF) Assay Assays were performed in black, flat-bottom, 384-well plates. […] The reaction was incubated at room temperature for 60 minutes, following which 10 μl of mouse anti-6×His-terbium labeled Fab (Medarex, Cis-bio) was added to the reaction (40 μl) for an additional 30 minute incubation. […] Compounds were dissolved at 3 mM in dimethylsulfoxide (DMSO) and evaluated at eleven serially diluted concentrations. IC50 and Ki values were derived by non-linear regression analysis.
# XIAP BIR2-3 = target: T2, XIAP BIR2-3 (Homo sapiens, UniProt P98170, C202A/C213G); assay: XIAP-BIR2-3 dimeric SMAC Peptide Homogeneous Time Resolved Fluorescence (HTRF) Assay; format: binding; settings: 0.5 nM N-His-BIR2-3 (125-356, C202A/C213G, XIAP), 20 nM fluorescein labeled dimeric SMAC peptide; HTRF signal; read-out: XIAP BIR2-3 IC50
# T2 construct: His-BIR2-3 (125-356, C202A/C213G, XIAP)
# Procedure: B. […] Assays were performed in black, flat-bottom, 384-well plates. […] Compounds were dissolved at 3 mM in dimethylsulfoxide (DMSO) and evaluated at eleven serially diluted concentrations. IC50 and Ki values were derived by non-linear regression analysis.
# T1 sequence (P98170 241-356): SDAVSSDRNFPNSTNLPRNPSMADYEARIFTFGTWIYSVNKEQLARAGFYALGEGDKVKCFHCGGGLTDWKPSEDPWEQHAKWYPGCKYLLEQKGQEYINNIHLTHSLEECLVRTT
# T2 sequence (P98170 125-356 C202A/C213G): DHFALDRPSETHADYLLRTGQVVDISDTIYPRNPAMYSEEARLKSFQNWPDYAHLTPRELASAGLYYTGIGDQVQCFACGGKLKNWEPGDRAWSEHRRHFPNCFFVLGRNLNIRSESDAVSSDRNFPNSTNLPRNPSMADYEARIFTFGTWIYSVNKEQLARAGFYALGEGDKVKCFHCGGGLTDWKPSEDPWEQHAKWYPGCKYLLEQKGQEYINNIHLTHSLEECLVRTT
Structure (SMILES),IC50 (XIAP BIR3) [nM],IC50 (XIAP BIR2-3) [nM]
CCN[C@@H](C)C(=O)N[C@H](C(=O)N1Cc2cc(C(=O)N[C@H]3C[C@@H](C(=O)NC4CCCc5ccccc54)N(C(=O)[C@@H](NC(=O)[C@H](C)NC)C(C)(C)C)C3)ccc2C[C@H]1C(=O)NC1CCCc2ccccc21)C(C)(C)C (stereo partly drawn) [Example 2],9,6
"CC[C@H](NC)C(=O)N[C@H](C(=O)N1Cc2cc(C(=O)N[C@H]3C[C@@H](C(=O)N[C@@H]4CCCc5ccccc54)N(C(=O)[C@@H](NC(=O)[C@H](C)NC)C(C)(C)C)C3)ccc2C[C@H]1C(=O)N[C@@H]1CCCc2ccccc21)C(C)(C)C [Example 3, (S)-2-((S)-3,3-Dimethyl-2-((S)-2-(methylamino)butanamido)butanoyl)-N^7-((3S,5S)-1-((S)-3,3-dimethyl-2-((S)-2-(methylamino)propanamido)butanoyl)-5-(((R)-1,2,3,4-tetrahydronaphthalen-1-yl)carbamoyl)pyrrolidin-3-yl)-N^3-((R)-1,2,3,4-tetrahydronaphthalen-1-yl)-1,2,3,4-tetrahydroisoquinoline-3,7-dicarboxamide]",6,3
"CN[C@@H](C)C(=O)N[C@H](C(=O)N1C[C@@H](NC(=O)c2ccc3c(c2)CN(C(=O)[C@@H](NC(=O)[C@@H](NC)C(C)C)C(C)(C)C)[C@H](C(=O)N[C@@H]2CCCc4ccccc42)C3)C[C@H]1C(=O)N[C@@H]1CCCc2ccccc21)C(C)(C)C [Example 4, (S)-N^7-((3S,5S)-1-((S)-3,3-Dimethyl-2-((S)-2-(methylamino)propanamido)butanoyl)-5-(((R)-1,2,3,4-tetrahydronaphthalen-1-yl)carbamoyl)pyrrolidin-3-yl)-2-((S)-3,3-dimethyl-2-((S)-3-methyl-2-(methylamino)butanamido)butanoyl)-N^3-((R)-1,2,3,4-tetrahydronaphthalen-1-yl)-1,2,3,4-tetrahydroisoquinoline-3,7-dicarboxamide]",10,11
"CCC(CC)[C@H](NC(=O)[C@H](C)NC)C(=O)N1Cc2cc(C(=O)N[C@H]3C[C@@H](C(=O)N[C@@H]4CCCc5ccccc54)N(C(=O)[C@@H](NC(=O)[C@H](C)NC)C(C)(C)C)C3)ccc2C[C@H]1C(=O)N[C@@H]1CCCc2ccccc21 [Example 8, (S)-N^7-((3S,5S)-1-((S)-3,3-Dimethyl-2-((S)-2-(methylamino)propanamido)butanoyl)-5-(((R)-1,2,3,4-tetrahydronaphthalen-1-yl)carbamoyl)pyrrolidin-3-yl)-2-((S)-3-ethyl-2-((S)-2-(methylamino)propanamido)pentanoyl)-N^3-((R)-1,2,3,4-tetrahydronaphthalen-1-yl)-1,2,3,4-tetrahydroisoquinoline-3,7-dicarboxamide]",11,2
"CN[C@@H](C)C(=O)N[C@H](C(=O)N1C[C@@H](NC(=O)c2ccc3c(c2)CN(C(=O)[C@@H](NC(=O)[C@H](C)NC)C24CC5CC(CC(C5)C2)C4)[C@H](C(=O)NC2CCCc4ccccc42)C3)C[C@H]1C(=O)NC1CCCc2ccccc21)C(C)(C)C (stereo partly drawn) [Example 10, (S)-2-((S)-2-((3S,5S,7S)-Adamantan-1-yl)-2-((S)-2-(methylamino)propanamido)acetyl)-N^7-((3S,5S)-1-((S)-3,3-dimethyl-2-((S)-2-(methylamino)propanamido)butanoyl)-5-(((R)-1,2,3,4-tetrahydronaphthalen-1-yl)carbamoyl)pyrrolidin-3-yl)-N^3-((R)-1,2,3,4-tetrahydronaphthalen-1-yl)-1,2,3,4-tetrahydroisoquinoline-3,7-dicarboxamide]",63,4
"CN[C@@H](C)C(=O)N[C@@H](Cc1cc(F)cc(F)c1)C(=O)N1Cc2cc(C(=O)N[C@H]3C[C@@H](C(=O)N[C@@H]4CCCc5ccccc54)N(C(=O)[C@@H](NC(=O)[C@H](C)NC)C(C)(C)C)C3)ccc2C[C@H]1C(=O)N[C@@H]1CCCc2ccccc21 [Example 11, (S)-2-((S)-3-(3,5-Difluorophenyl)-2-((S)-2-(methylamino)propanamido)propanoyl)-N^7-((3S,5S)-1-((S)-3,3-dimethyl-2-((S)-2-(methylamino)propanamido)butanoyl)-5-(((R)-1,2,3,4-tetrahydronaphthalen-1-yl)carbamoyl)pyrrolidin-3-yl)-N^3-((R)-1,2,3,4-tetrahydronaphthalen-1-yl)-1,2,3,4-tetrahydroisoquinoline-3,7-dicarboxamide]",25,10
"CCN[C@@H](C)C(=O)N[C@H](C(=O)N1C[C@@H](NC(=O)c2ccc3c(c2)CN(C(=O)[C@@H](NC(=O)[C@H](C)NC)C(C)(C)C)[C@H](C(=O)N[C@@H]2CCCc4ccccc42)C3)C[C@H]1C(=O)N[C@@H]1CCCc2ccccc21)C(C)(C)C [Example 14, (S)-2-((S)-3,3-Dimethyl-2-((S)-2-(methylamino)propanamido)butanoyl)-N^7-((3S,5S)-1-((S)-2-((S)-2-(ethylamino)propanamido)-3,3-dimethylbutanoyl)-5-(((R)-1,2,3,4-tetrahydronaphthalen-1-yl)carbamoyl)pyrrolidin-3-yl)-N^3-((R)-1,2,3,4-tetrahydronaphthalen-1-yl)-1,2,3,4-tetrahydroisoquinoline-3,7-dicarboxamide]",29,15

# Further molecules by falling IC50 (XIAP BIR3), results first:
IC50 (XIAP BIR3) [nM],IC50 (XIAP BIR2-3) [nM],Structure (SMILES)
33,3,"CN[C@@H](C)C(=O)N[C@@H](CC1CCCCC1)C(=O)N1Cc2cc(C(=O)N[C@H]3C[C@@H](C(=O)N[C@@H]4CCCc5ccccc54)N(C(=O)[C@@H](NC(=O)[C@H](C)NC)C(C)(C)C)C3)ccc2C[C@H]1C(=O)N[C@@H]1CCCc2ccccc21 [Example 9, (S)-2-((S)-3-Cyclohexyl-2-((S)-2-(methylamino)propanamido)propanoyl)-N^7-((3S,5S)-1-((S)-3,3-dimethyl-2-((S)-2-(methylamino)propanamido)butanoyl)-5-(((R)-1,2,3,4-tetrahydronaphthalen-1-yl)carbamoyl)pyrrolidin-3-yl)-N^3-((R)-1,2,3,4-tetrahydronaphthalen-1-yl)-1,2,3,4-tetrahydroisoquinoline-3,7-dicarboxamide]"
19,15,"CN[C@@H](C)C(=O)N[C@H](C(=O)N1Cc2cc(C(=O)N[C@H]3C[C@@H](C(=O)N[C@@H]4CCCc5ccccc54)N(C(=O)[C@@H](NC(=O)[C@H](C)NC)C(C)(C)C)C3)ccc2C[C@H]1C(=O)N[C@@H]1CCCc2ccccc21)C1CCCC1 [Example 12, (S)-2-((S)-2-Cyclopentyl-2-((S)-2-(methylamino)propanamido)acetyl)-N^7-((3S,5S)-1-((S)-3,3-dimethyl-2-((S)-2-(methylamino)propanamido)butanoyl)-5-(((R)-1,2,3,4-tetrahydronaphthalen-1-yl)carbamoyl)pyrrolidin-3-yl)-N^3-((R)-1,2,3,4-tetrahydronaphthalen-1-yl)-1,2,3,4-tetrahydroisoquinoline-3,7-dicarboxamide]"
14,13,"CN[C@@H](C)C(=O)N[C@H](C(=O)N1C[C@@H](NC(=O)c2ccc3c(c2)CN(C(=O)[C@@H](NC(=O)[C@@H](NC)C2CC2)C(C)(C)C)[C@H](C(=O)N[C@@H]2CCCc4ccccc42)C3)C[C@H]1C(=O)N[C@@H]1CCCc2ccccc21)C(C)(C)C [Example 5, (S)-2-((S)-2-((S)-2-Cyclopropyl-2-(methylamino)acetamido)-3,3-dimethylbutanoyl)-N^7-((3S,5S)-1-((S)-3,3-dimethyl-2-((S)-2-(methylamino)propanamido)butanoyl)-5-(((R)-1,2,3,4-tetrahydronaphthalen-1-yl)carbamoyl)pyrrolidin-3-yl)-N^3-((R)-1,2,3,4-tetrahydronaphthalen-1-yl)-1,2,3,4-tetrahydroisoquinoline-3,7-dicarboxamide]"
6,6,"CN[C@@H](C)C(=O)N[C@H](C(=O)N1Cc2cc(C(=O)N[C@H]3C[C@@H](C(=O)N[C@@H]4CCCc5ccccc54)N(C(=O)[C@@H](NC(=O)[C@H](C)NC)C(C)(C)C)C3)ccc2C[C@H]1C(=O)N[C@@H]1CCCc2ccccc21)[C@@H](C)OC [Example 7, (S)-N^7-((3S,5S)-1-((S)-3,3-Dimethyl-2-((S)-2-(methylamino)propanamido)butanoyl)-5-(((R)-1,2,3,4-tetrahydronaphthalen-1-yl)carbamoyl)pyrrolidin-3-yl)-2-((2S,3R)-3-methoxy-2-((S)-2-(methylamino)propanamido)butanoyl)-N^3-((R)-1,2,3,4-tetrahydronaphthalen-1-yl)-1,2,3,4-tetrahydroisoquinoline-3,7-dicarboxamide]"
6,2,CN[C@@H](C)C(=O)N[C@H](C(=O)N1Cc2cc(C(=O)N[C@H]3C[C@@H](C(=O)NC4CCCc5ccccc54)N(C(=O)[C@@H](NC(=O)[C@H](C)NC)C(C)(C)C)C3)ccc2C[C@H]1C(=O)NC1CCCc2ccccc21)C1CCOCC1 (stereo partly drawn) [Example 13]
